Experimental data from US20150330991A1, “METHOD FOR IMPROVING TARGET AFFINITY OF PEPTIDE” (GWANGJU INSTITUTE OF SCIENCE AND TECHNOLOGY, priority 2012, published 2015).
One block for each compound: values may come before it. Peptide text beside a SMILES is read from it.

Assays:
VEGFR1 = VEGFR1 (Homo sapiens, UniProt P17948); assay: SPR (BIAcore) binding assay of VEGFR1_opti1 and control peptide on immobilized VEGFR1
Experimental: (§1) A VEGFR1-binding peptide optimized peptide and an existing peptide were synthesized (Anygen). The affinity measurement was conducted using BIAcore X (Biacore AB, Uppsala, Sweden). Here, 7000 RU of VEGFR1 was allowed to flow on the CM5 chip (Biacore) for immobilization. PBS (pH 7.4) was used as a running buffer, and the kinetics at different concentrations was measured under a flow rate of 30 μl per minute. The affinity was calculated using BlAevaluation software (Biacore AB, Uppsala, Sweden).

ED-B protein = biological target: T1, ED-B protein (Homo sapiens, UniProt P02751); assay: SPR (BIAcore) binding strength assay on immobilized biotin-EDB; conditions: for Kd: read-out: KD = Koff/Kon
T1 construct: Biopanning on ED-B domain
Experimental: The bipodal peptide binder found from BPB2EDB, BPB3EDB, and BPB4EDB maturation libraries were synthesized (Anygen, Korea). The affinity measurement was conducted using BIAcore X (Biacore AB, Uppsala, Sweden). 2,000 RU of biotin-EDB was allowed to flow on the streptavidin SA chip (Biacore) for immobilization. PBS (pH 7.4) was used as a running buffer, and kinetics at different concentrations was measured under a flow rate of 30 μl per minute. The affinity was calculated using BlAevaluation software (Biacore AB, Uppsala, Sweden).

streptavidin [1] = biological target: T2, streptavidin (Streptomyces avidinii, UniProt P22629); assay: SPR (BIAcore) binding assay of Strep_opti1 and control peptide on immobilized streptavidin; conditions: from KD values
Experimental: as §1, with “streptavidin-binding” for “VEGFR1-binding”, “2000” for “7000”, “streptavidin” for “VEGFR1”

streptavidin [2] = biological target: T2, streptavidin; assay: Phage ELISA specificity to streptavidin versus BSA, ovalbumin and VEGF; type: binding; conditions: ovalbumin, VEGF coated wells
Experimental: In order to investigate specificities to streptavidin, of peptides (Strep_opti1 and Strep_opti2) obtained through sequencing, recombinant phages expressing these peptides were used to investigate specificities to streptavidin, BSA, ovalbumin, and VEGF. First, 5 μg/ml streptavidin, BSA, ovalbumin, and VEGF were put in a 96-well ELISA plate (50 μl per well), and then allowed to stand at 4° C. overnight. Next day, all the wells were washed three times with 0.1% PBST, and blocked at room temperature for 2 hrs using 2% BSA diluted with PBS. Then, the solution was discarded, followed by washing with 0.1% PBST three times. 800 μl of recombinant phages of each of Strep_opti1 and Strep_opti2 and 200 μl of 10% BSA were added thereto, and each 100 μl was dispensed into streptavidin, BSA, ovalbumin, and VEGF wells, followed by standing at 27° C. for 1 hr. After washing five times with 0.1% PBST solution, the HRP-conjugated anti-M13 antibody (GE Healthcare) was diluted to 1:1,000, and then the reaction was performed at 27° C. for 1 hr. After washing five times with 0.1% PBST, 100 μl of the TMB solution was dispensed into each well to induce a colorimetric reaction, and then the reaction was stopped by adding 100 μl of 1 M HCl. The absorbance was measured at 450 nm.

T1 sequence (P02751 1271-1359 limits assumed): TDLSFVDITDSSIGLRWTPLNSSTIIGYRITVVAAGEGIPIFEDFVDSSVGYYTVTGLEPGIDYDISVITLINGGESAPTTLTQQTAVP
Sequence of VEGFR1 (P17948 27-1338, species assumed): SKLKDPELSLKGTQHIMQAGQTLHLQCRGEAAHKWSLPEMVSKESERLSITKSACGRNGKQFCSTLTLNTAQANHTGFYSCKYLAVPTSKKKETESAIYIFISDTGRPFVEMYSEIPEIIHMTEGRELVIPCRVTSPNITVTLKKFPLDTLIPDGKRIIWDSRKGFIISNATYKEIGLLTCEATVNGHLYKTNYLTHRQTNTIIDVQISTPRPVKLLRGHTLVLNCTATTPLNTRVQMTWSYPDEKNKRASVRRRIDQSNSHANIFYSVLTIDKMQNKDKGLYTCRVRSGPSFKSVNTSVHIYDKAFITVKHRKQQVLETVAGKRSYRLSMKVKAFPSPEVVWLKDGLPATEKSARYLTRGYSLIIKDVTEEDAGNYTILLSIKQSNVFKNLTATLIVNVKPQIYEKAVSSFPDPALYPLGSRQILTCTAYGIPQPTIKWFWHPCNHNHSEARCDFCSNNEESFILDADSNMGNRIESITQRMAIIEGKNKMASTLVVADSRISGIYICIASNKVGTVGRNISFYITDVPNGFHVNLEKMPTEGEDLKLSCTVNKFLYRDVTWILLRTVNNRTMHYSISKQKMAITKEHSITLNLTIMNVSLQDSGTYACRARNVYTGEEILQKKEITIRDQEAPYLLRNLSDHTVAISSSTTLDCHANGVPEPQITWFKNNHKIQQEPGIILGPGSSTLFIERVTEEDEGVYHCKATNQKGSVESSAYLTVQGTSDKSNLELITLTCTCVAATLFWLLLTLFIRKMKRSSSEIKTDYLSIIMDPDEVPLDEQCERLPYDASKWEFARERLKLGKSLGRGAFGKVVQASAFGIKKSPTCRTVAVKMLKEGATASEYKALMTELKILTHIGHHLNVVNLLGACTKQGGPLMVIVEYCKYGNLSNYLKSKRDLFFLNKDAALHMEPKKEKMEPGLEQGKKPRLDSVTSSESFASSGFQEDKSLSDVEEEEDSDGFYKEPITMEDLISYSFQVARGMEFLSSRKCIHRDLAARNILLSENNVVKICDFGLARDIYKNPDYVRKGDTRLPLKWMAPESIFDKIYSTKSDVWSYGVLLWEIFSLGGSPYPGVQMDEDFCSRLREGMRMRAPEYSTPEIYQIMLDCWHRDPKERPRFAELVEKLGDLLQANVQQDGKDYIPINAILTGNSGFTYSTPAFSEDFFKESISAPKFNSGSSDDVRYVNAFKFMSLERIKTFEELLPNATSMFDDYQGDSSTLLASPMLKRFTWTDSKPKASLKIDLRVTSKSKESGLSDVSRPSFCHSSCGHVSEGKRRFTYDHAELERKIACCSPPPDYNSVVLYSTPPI

Compound: GNQWFIGGGSWTWENGKWTWKGRIPKNR (VEGFR1_opti1)
SPR response increase (VEGFR1; at 5 μM peptide): 45 RU | fold increase in affinity versus control peptide (VEGFR1; from RU at 5 μM versus 200 μM): about 360 fold

Compound: CC[C@H](C)[C@H](NC(=O)CNC(=O)[C@H](CCCCN)NC(=O)[C@H](Cc1c[nH]c2ccccc12)NC(=O)[C@@H](NC(=O)[C@H](Cc1c[nH]c2ccccc12)NC(=O)[C@H](CCCCN)NC(=O)CNC(=O)[C@H](CC(N)=O)NC(=O)[C@H](CCC(=O)O)NC(=O)[C@H](Cc1c[nH]c2ccccc12)NC(=O)[C@@H](NC(=O)[C@H](Cc1c[nH]c2ccccc12)NC(=O)[C@H](CO)NC(=O)CNC(=O)[C@@H](NC(=O)[C@H](C)NC(=O)[C@H](CO)NC(=O)[C@H](CO)NC(=O)[C@H](CS)NC(=O)[C@@H](N)Cc1c[nH]cn1)C(C)C)[C@@H](C)O)[C@@H](C)O)C(=O)N[C@H](C(=O)N[C@@H](CCCNC(=N)N)C(=O)N[C@@H](CC(C)C)C(=O)N[C@@H](CCC(=O)O)C(=O)N[C@@H](CCC(N)=O)C(=O)O)[C@@H](C)CC [BPB1EDB] (H-HCSSAVGSWTWENGKWTWKGIIRLEQ-OH; N-terminus and C-terminus assumed)
Kd (ED-B protein; SPR, target binding kinetics): 75 nM

Compound: CC(C)[C@H](NC(=O)[C@H](CCC(N)=O)NC(=O)[C@@H]1CCCN1C(=O)[C@H](Cc1c[nH]cn1)NC(=O)[C@H](C)NC(=O)CNC(=O)[C@H](CCCCN)NC(=O)[C@H](Cc1c[nH]c2ccccc12)NC(=O)[C@@H](NC(=O)[C@H](Cc1c[nH]c2ccccc12)NC(=O)[C@H](CCCCN)NC(=O)CNC(=O)[C@H](CC(N)=O)NC(=O)[C@H](CCC(=O)O)NC(=O)[C@H](Cc1c[nH]c2ccccc12)NC(=O)[C@@H](NC(=O)[C@H](Cc1c[nH]c2ccccc12)NC(=O)[C@H](CO)NC(=O)CNC(=O)CNC(=O)CNC(=O)[C@H](CCCCN)NC(=O)[C@H](CCC(=O)O)NC(=O)[C@H](Cc1ccccc1)NC(=O)[C@H](CCC(N)=O)NC(=O)[C@@H]1CCCN1C(=O)[C@H](Cc1c[nH]cn1)NC(=O)[C@H](CO)NC(=O)[C@@H](N)Cc1c[nH]c2ccccc12)[C@@H](C)O)[C@@H](C)O)C(=O)N[C@@H](CCCNC(=N)N)C(=O)O [Strep_opti1] (H-WSHPQFEKGGGSWTWENGKWTWKGAHPQVR-OH; N-terminus and C-terminus assumed)
fold increase in affinity compared with control peptide WSHPQFEK (streptavidin [1]): 1223 fold | specificity (phage ELISA absorbance at 450 nm) (streptavidin [2]): specifically bind to streptavidin

Compound: WSHPQFEKGGGSWTWENGKWTWKG TLIHPM [Strep_opti2]
specificity (phage ELISA absorbance at 450 nm) (streptavidin [2]): specifically bind to streptavidin

More lines, now with the values ahead:

Koff (ED-B protein; SPR, target binding kinetics): 5.1 × 10^−4 S^−1 | Kon (ED-B protein; SPR, target binding kinetics): 3.0 × 10^4 M^−1S^−1 | Kd (ED-B protein; SPR, target binding kinetics): 16 nM
Compound: CC[C@H](C)[C@H](NC(=O)CNC(=O)[C@H](CCCCN)NC(=O)[C@H](Cc1c[nH]c2ccccc12)NC(=O)[C@@H](NC(=O)[C@H](Cc1c[nH]c2ccccc12)NC(=O)[C@H](CCCCN)NC(=O)CNC(=O)[C@H](CC(N)=O)NC(=O)[C@H](CCC(=O)O)NC(=O)[C@H](Cc1c[nH]c2ccccc12)NC(=O)[C@@H](NC(=O)[C@H](Cc1c[nH]c2ccccc12)NC(=O)[C@H](CO)NC(=O)CNC(=O)[C@H](CCC(N)=O)NC(=O)[C@@H](NC(=O)[C@@H]1CCCN1C(=O)[C@H](CO)NC(=O)[C@H](CO)NC(=O)[C@@H](N)CS)[C@@H](C)CC)[C@@H](C)O)[C@@H](C)O)C(=O)N[C@H](C(=O)N[C@@H](CCCNC(=N)N)C(=O)N[C@@H](CC(C)C)C(=O)N[C@@H](CCC(=O)O)C(=O)N[C@@H](CCC(N)=O)C(=O)O)[C@@H](C)CC [peptide 3] (H-CSSPIQGSWTWENGKWTWKGIIRLEQ-OH; N-terminus and C-terminus assumed)

fold increase in affinity compared with BPB1 (ED-B protein; through the optimization system): 21 fold
Compound: CC[C@H](C)[C@H](NC(=O)CNC(=O)[C@H](CCCCN)NC(=O)[C@H](Cc1c[nH]c2ccccc12)NC(=O)[C@@H](NC(=O)[C@H](Cc1c[nH]c2ccccc12)NC(=O)[C@H](CCCCN)NC(=O)CNC(=O)[C@H](CC(N)=O)NC(=O)[C@H](CCC(=O)O)NC(=O)[C@H](Cc1c[nH]c2ccccc12)NC(=O)[C@@H](NC(=O)[C@H](Cc1c[nH]c2ccccc12)NC(=O)[C@H](CO)NC(=O)CNC(=O)[C@H](CCC(N)=O)NC(=O)[C@@H](NC(=O)[C@@H]1CCCN1C(=O)[C@H](CO)NC(=O)[C@H](CO)NC(=O)[C@H](CS)NC(=O)[C@H](CO)NC(=O)[C@@H](N)Cc1c[nH]cn1)[C@@H](C)CC)[C@@H](C)O)[C@@H](C)O)C(=O)N[C@H](C(=O)N[C@@H](CCCNC(=N)N)C(=O)N[C@@H](CC(C)C)C(=O)N[C@@H](CCC(=O)O)C(=O)N[C@@H](CCC(N)=O)C(=O)N[C@@H](CCC(N)=O)C(=O)N1CCC[C@H]1C(=O)O)[C@@H](C)CC [BPB4EDB] (H-HSCSSPIQGSWTWENGKWTWKGIIRLEQQP-OH; N-terminus and C-terminus assumed)
